In patent US20260215432A1, “ANTIMICROBIAL CONJUGATED OLIGOELECTROLYTES AND METHODS THEREOF” (National University of Singapore, priority 2023, published 2026):

How the values were obtained:
[1] = tested on: methicillin-resistant Staphylococcus aureus (ATCC BAA-1717); assay: Time-kill kinetics; assay type: cell-based; conditions: MRSA, within the first two hours, concentrations above the MBC value of 4 μg mL^−1
Procedure: (§1) Separately, MRSA and P. aeruginosa cultures were challenged with DM6P at varying concentrations and aliquots were taken at specific intervals to quantify the bacteria remaining.
(§2) The time-kill kinetics was determined against Pseudomonas aeruginosa (PAO1, ATCC 47085) and methicillin-resistant Staphylococcus aureus (ATCC BAA-1717). Bacteria tested were subcultured in Cation-Adjusted Mueller Hinton II Broth (CAMHB, BD Biosciences) from overnight cultures to mid-log phase at 37° C. with shaking at 200 rpm and diluted to an OD600 value of 0.2 and aliquoted into 2 mL fractions in culture tubes. The resulting bacterial suspension was then challenged with DM6P at varying concentrations and incubated at 37° C. with shaking at 200 rpm. At regular intervals, 100 μL aliquots of each sample were diluted with 10-fold dilution in PBS and plated on TSB agar plates with 100 μL inoculation. The colonies were incubated at 37° C. overnight and counted to determine the cfu/mL of each sample. Experiments were performed in triplicate.

[2] = tested on: Pseudomonas aeruginosa (PAO1, ATCC 47085); assay: Time-kill kinetics; assay type: cell-based; conditions: P. aeruginosa, treatment at or above the MBC
Procedure: as §1, §2

PAO1 = assay: Membrane depolarization assay (DiSC3(5)); assay type: cell-based, P. aeruginosa; conditions: DiSC3(5)-encapsulated PAO1 cells
Excerpt: The interactions of DM6P with various bacterial cell membranes were first investigated through spectrometric methods. In normal cells, compartmentalization of the intracellular space by the lipid bilayer enables the maintenance of a transmembrane potential, which is necessary for regular cell division and energy production. The membrane-potential sensitive dye 3,3′-dipropylthiadicarbocyanine iodide (DiSC3(5)) accumulates within the membranes of healthy, polarized cells where its fluorescence is self-quenched. Depolarization of the membrane necessary to maintain this gradient causes the release of this dye, resulting in an increase in fluorescence intensity. […]
Determination of the extent of depolarization of bacterial cell membranes was carried out using a voltage sensitive dye DiSC3(5) (ThermoFisher, USA). The dye is able to accumulate within polarized healthy cell membranes with resulting quenched fluorescence. When the membrane is depolarized, subsequent ion permeabilization releases the dye from the membrane and gives rise to enhanced fluorescence intensity.^3 The assay was performed according to a modified protocol reported previously. […] The plate was incubated in the dark for 30 minutes, with the signal measured every 5 minutes until a stable baseline was observed. COEs were then added at varying concentrations and the fluorescence intensity was measured over time at 37° C. […]

## COc1cc(/C=C/c2ccc(OCCCCCC[P+](c3ccccc3)(c3ccccc3)c3ccccc3)c(OC)c2)ccc1OCCCCCC[P+](c1ccccc1)(c1ccccc1)c1ccccc1.[I-].[I-] [DM6P]
[1]
  bacteria remaining (nearly complete killing): < 100 cfu mL^−1
[2]
  killing at or above the MBC value: eradication of the cells
PAO1
  depolarization of the bacterial membrane: dose-dependent depolarization
